Data published in patent publication US20110172296A1, “MODULATION OF TRANSFORMING GROWTH FACTOR-BETA 1 EXPRESSION” (priority 2010, published 2011).
Several values for one entry are separate records, joined by “and”; a condition that tells them apart may be missing. Identical values can stand only once. In the oligonucleotide strings, read from the 5' end, every base follows the letter of its sugar. An asterisk marks phosphorothioate; unmarked linkages are phosphodiester. Other units and linkages are bracketed, terminal groups are in braces. A string of capitals states the bases alone. e = 2'-O-(2-methoxyethyl) (MOE); [5mC] = 5-methylcytosine; d = 2'-deoxy (DNA)

System: human TGF-beta1 mRNA
Assay: Antisense inhibition of human TGF-beta1 mRNA in HuVEC cells, single 10 nM dose, Lipofectamine 2000 (Example 2)
Assay type: cell-based
Conditions: for % inhibition: 10 nM oligonucleotide, HuVEC, relative to untreated control cells; for inhibition of a TGF-beta1 mRNA: threshold lists of Oligo IDs, 10 nM
Description: Antisense oligonucleotides targeted to a TGF-beta1 nucleic acid were tested for their effects on TGF-beta1 mRNA in vitro. Cultured HuVEC cells at a density of 5,000 cells per well were transfected using Lipofectamine™ 2000 reagent with 10 nM antisense oligonucleotide for 4 hours. After a recovery period of approximately 24 hours, RNA was isolated from the cells and TGF-beta1 mRNA levels were measured by quantitative real-time PCR. TGF-beta1 mRNA levels were adjusted according to total RNA content, as measured by RIBOGREEN®. Results are presented as percent inhibition of TGF-beta1, relative to untreated control cells.
The chimeric antisense oligonucleotides in Tables 1 and 2 were designed as 2-13-5 MOE gapmers. Antisense molecules with this motif targeting TGF-beta1 are unique, and represent a novel chemical structure for an ASO directed against this target. The gapmers are 20 nucleotides in length, wherein the central gap segments are comprised of thirteen 2′-deoxynucleotides and are flanked on the 5′ side by wings comprising two nucleotides each and on the 3′ side by wings comprising five nucleotides each. Each nucleotide in the 5′ wing segment and each nucleotide in the 3′ wing segment has a 2′-MOE modification. The internucleoside linkages throughout each gapmer are phosphorothioate (P═S) linkages. All cytosine residues throughout each gapmer are 5-methylcytosines. “Target start site” indicates the 5′-most nucleotide to which the gapmer is targeted. “Target stop site” indicates the 3′-most nucleotide to which the gapmer is targeted. Each gapmer listed in Table 1 is targeted to SEQ ID NO: 1 (GENBANK Accession No. NM_000660.3). Each gapmer listed in Table 2 is targeted to SEQ ID NO: 2 (GENBANK Accession No. NT 011109.15 truncated from 14103000 to […]).

[1] = gapmers targeted to SEQ ID NO: 2
[2] = gapmers targeted to SEQ ID NO: 1

Substance | % inhibition [1] | inhibition of a TGF-beta1 mRNA | % inhibition [2]
414021 (antisense eT*eG*dT*dA*d[5mC]*dA*dG*dG*dG*d[5mC]*dG*dA*dG*d[5mC]*dA*e[5mC]*eG*eG*e[5mC]*e[5mC]) [compound 414021] | 74% | 60% and 65% and 70% | 
414023 (antisense eT*e[5mC]*dG*dG*dG*d[5mC]*dT*d[5mC]*d[5mC]*dG*dG*dT*dT*d[5mC]*dT*eG*e[5mC]*eA*e[5mC]*eT) [compound 414023] |  | 60% and 65% and 70% and 75% | 78%
414024 (antisense eG*e[5mC]*dT*d[5mC]*dG*dG*dG*d[5mC]*dT*d[5mC]*d[5mC]*dG*dG*dT*dT*e[5mC]*eT*eG*e[5mC]*eA) [compound 414024] |  | 60% and 65% and 70% and 75% and 80% | 83%
414025 (antisense eA*eG*dG*d[5mC]*dT*d[5mC]*dG*dG*dG*d[5mC]*dT*d[5mC]*d[5mC]*dG*dG*eT*eT*e[5mC]*eT*eG) [compound 414025] |  | 60% and 65% and 70% and 75% | 79%
414026 (antisense e[5mC]*e[5mC]*dT*d[5mC]*dA*dG*dG*d[5mC]*dT*d[5mC]*dG*dG*dG*d[5mC]*dT*e[5mC]*e[5mC]*eG*eG*eT) [compound 414026] |  | 60% and 65% and 70% and 75% and 80% | 82%
414027 (antisense eG*eG*d[5mC]*d[5mC]*dT*d[5mC]*dA*dG*dG*d[5mC]*dT*d[5mC]*dG*dG*dG*e[5mC]*eT*e[5mC]*e[5mC]*eG) [compound 414027] |  | 60% and 65% and 70% and 75% and 80% | 84%
414028 (antisense e[5mC]*e[5mC]*dA*dT*dT*dA*dG*d[5mC]*dA*d[5mC]*dG*d[5mC]*dG*dG*dG*eT*eG*eA*e[5mC]*e[5mC]) [compound 414028] |  | 60% and 65% and 70% and 75% | 75%
414029 (antisense eG*eA*dG*d[5mC]*dT*d[5mC]*dT*dG*dA*dT*dG*dT*dG*dT*dT*eG*eA*eA*eG*eA) [compound 414029] |  | 60% and 65% and 70% | 73%
414030 (antisense e[5mC]*eT*dA*dA*dG*dG*d[5mC]*dG*dA*dA*dA*dG*d[5mC]*d[5mC]*d[5mC]*eT*e[5mC]*eA*eA*eT) [compound 414030] |  | 60% | 60%
414031 (antisense eA*eT*dG*dT*d[5mC]*d[5mC]*dA*d[5mC]*dT*dT*dG*d[5mC]*dA*dG*dT*eG*eT*eG*eT*eT) [compound 414031] |  | 60% and 65% | 66%
414032 (antisense eG*eG*dG*dT*dT*dA*dT*dG*d[5mC]*dT*dG*dG*dT*dT*dG*eT*eA*e[5mC]*eA*eG) [compound 414032] |  | 60% and 65% and 70% and 75% and 80% | 80%
414033 (antisense e[5mC]*eT*d[5mC]*d[5mC]*dA*d[5mC]*d[5mC]*dT*dT*dG*dG*dG*d[5mC]*dT*dT*eG*e[5mC]*eG*eG*e[5mC]) [compound 414033] |  | 60% and 65% and 70% and 75% and 80% | 80%
414034 (antisense e[5mC]*e[5mC]*dT*dT*dA*dA*dA*dT*dA*d[5mC]*dA*dG*d[5mC]*d[5mC]*d[5mC]*e[5mC]*e[5mC]*eA*eT*eG) [compound 414034] |  | 60% and 65% | 68%
414038 (antisense eA*e[5mC]*dG*dG*dG*dT*dG*dT*d[5mC]*d[5mC]*dT*dT*dA*dA*dA*eT*eA*e[5mC]*eA*eG) [compound 414038] |  | 60% and 65% and 70% and 75% and 80% and 85% | 85%
414039 (antisense eG*e[5mC]*dA*d[5mC]*dG*dG*dG*dT*dG*dT*d[5mC]*d[5mC]*dT*dT*dA*eA*eA*eT*eA*e[5mC]) [compound 414039] |  | 60% and 65% and 70% and 75% and 80% | 83%
414041 (antisense eA*e[5mC]*dA*dG*dA*dG*dA*dT*d[5mC]*d[5mC]*dG*d[5mC]*dA*dG*dT*e[5mC]*e[5mC]*eT*e[5mC]*eT) [compound 414041] |  | 60% and 65% and 70% | 74%
414042 (antisense e[5mC]*eG*d[5mC]*d[5mC]*d[5mC]*dA*dA*dT*dG*dA*d[5mC]*dA*d[5mC]*dA*dG*eA*eG*eA*eT*e[5mC]) [compound 414042] |  | 60% and 65% | 68%
414043 (antisense e[5mC]*e[5mC]*dT*dT*dG*dA*dT*dG*d[5mC]*d[5mC]*dG*dG*dG*d[5mC]*dA*eA*eA*eG*eG*eA) [compound 414043] |  | 60% | 64%

Substance | % inhibition [1] | inhibition of a TGF-beta1 mRNA | % inhibition [2]
414044 (antisense eA*eT*d[5mC]*dT*dA*dA*d[5mC]*dT*dA*d[5mC]*dA*dG*dT*dA*dG*eT*eG*eT*eT*e[5mC]) [compound 414044] |  |  | 31%
414045 (antisense eA*eG*d[5mC]*d[5mC]*dA*dG*dT*dT*dT*d[5mC]*dT*dT*d[5mC]*dT*dG*e[5mC]*e[5mC]*eA*eG*eT) [compound 414045] | 80% | 60% and 65% and 70% and 75% and 80% | 
414046 (antisense eG*eT*dG*dA*dA*dA*d[5mC]*dA*d[5mC]*d[5mC]*dG*dA*dG*dG*dA*e[5mC]*eA*e[5mC]*e[5mC]*eT) [compound 414046] | 67% | 60% and 65% | 
414047 (antisense e[5mC]*e[5mC]*dT*dG*d[5mC]*d[5mC]*d[5mC]*d[5mC]*dT*dT*dG*dG*dT*dG*dG*eA*eA*eG*e[5mC]*eG) [compound 414047] | 41% |  | 
414048 (antisense eG*eG*dT*dT*dT*d[5mC]*d[5mC]*d[5mC]*d[5mC]*dA*dG*d[5mC]*d[5mC]*dA*d[5mC]*e[5mC]*e[5mC]*eT*eG*eA) [compound 414048] | 61% | 60% | 
414049 (antisense e[5mC]*eT*dG*dA*dG*dT*dG*dG*dG*dA*dG*d[5mC]*d[5mC]*d[5mC]*d[5mC]*eG*e[5mC]*e[5mC]*e[5mC]*eG) [compound 414049] | 53% |  | 
414050 (antisense eT*eT*d[5mC]*d[5mC]*d[5mC]*d[5mC]*dA*dA*dG*dG*d[5mC]*dT*d[5mC]*dT*dG*eA*eA*e[5mC]*e[5mC]*eA) [compound 414050] | 82% | 60% and 65% and 70% and 75% and 80% | 
414051 (antisense eG*eT*d[5mC]*dA*dG*dT*dG*dT*dT*dA*dA*dA*dG*dG*dA*eA*e[5mC]*e[5mC]*eT*e[5mC]) [compound 414051] | 36% |  | 
414052 (antisense eA*e[5mC]*dA*d[5mC]*dA*dT*dG*dT*dG*d[5mC]*dA*dT*dT*dT*dG*eT*eT*eG*eG*eG) [compound 414052] | 52% |  | 
414053 (antisense eT*eT*dG*dG*d[5mC]*d[5mC]*d[5mC]*dG*dG*dA*dG*dG*dT*dT*dA*e[5mC]*eT*e[5mC]*eA*eG) [compound 414053] | 52% |  | 
414054 (antisense eT*eG*dA*dA*dG*dT*dT*d[5mC]*dA*dT*dT*d[5mC]*dT*dG*dG*eG*eT*eA*eG*eG) [compound 414054] | 51% |  | 
414055 (antisense eA*eT*dT*dA*dG*dT*dT*dT*dT*d[5mC]*d[5mC]*dA*d[5mC]*d[5mC]*d[5mC]*eT*eT*eA*eA*e[5mC]) [compound 414055] | 53% |  | 
414056 (antisense eT*eT*dA*dT*dA*d[5mC]*d[5mC]*d[5mC]*dG*dT*dT*dT*dA*dA*dT*eA*eG*eA*eT*eG) [compound 414056] | 41% |  | 
414057 (antisense eT*eA*d[5mC]*dA*d[5mC]*dT*dG*dG*dT*d[5mC]*dA*d[5mC]*dT*d[5mC]*dA*eA*eT*e[5mC]*eA*eT) [compound 414057] | 58% |  | 
414059 (antisense e[5mC]*eA*dA*dG*dA*d[5mC]*dA*dG*dA*dG*dT*dG*dA*d[5mC]*dT*e[5mC]*eT*eA*eG*eA) [compound 414059] | 66% | 60% and 65% | 
414060 (antisense eA*e[5mC]*dA*dG*d[5mC]*dA*dA*dT*dA*dA*d[5mC]*dA*dT*dT*dA*eA*eG*e[5mC]*eT*e[5mC]) [compound 414060] | 31% |  | 
414061 (antisense eT*eG*dT*dG*dT*dG*dA*d[5mC]*d[5mC]*dA*dT*dG*dG*dG*d[5mC]*eA*eG*eT*eT*eA) [compound 414061] | 69% | 60% and 65% | 
414062 (antisense e[5mC]*e[5mC]*d[5mC]*d[5mC]*dT*dA*dA*dA*dA*dT*dG*d[5mC]*dA*dG*dA*eG*eT*eA*eA*eG) [compound 414062] | 72% | 60% and 65% and 70% | 
